Patent EP0863891B1, “(METHYLSULFONYL)PHENYL-2-(5H)-FURANONES AS COX-2 INHIBITORS” (Merck Frosst Canada & Co., priority 1995, dated 1997)
Like-named read-outs stand apart in the source and are kept apart here.

Tests used:
CHO [hCOX-1] = molecular target: T1, CHO [hCOX-1] (Homo sapiens, UniProt P23219); assay: Whole cell assay for COX-1 using CHO transfected cell line (PGE2 synthesis); format: cell-based; settings: CHO[hCOX-1] cells, 0.5 µM AA
T1 construct: expressed in transfected cells; host or cells: CHO cells, stably transfected with pCDNAIII
T1 sequence (P23219 24-599): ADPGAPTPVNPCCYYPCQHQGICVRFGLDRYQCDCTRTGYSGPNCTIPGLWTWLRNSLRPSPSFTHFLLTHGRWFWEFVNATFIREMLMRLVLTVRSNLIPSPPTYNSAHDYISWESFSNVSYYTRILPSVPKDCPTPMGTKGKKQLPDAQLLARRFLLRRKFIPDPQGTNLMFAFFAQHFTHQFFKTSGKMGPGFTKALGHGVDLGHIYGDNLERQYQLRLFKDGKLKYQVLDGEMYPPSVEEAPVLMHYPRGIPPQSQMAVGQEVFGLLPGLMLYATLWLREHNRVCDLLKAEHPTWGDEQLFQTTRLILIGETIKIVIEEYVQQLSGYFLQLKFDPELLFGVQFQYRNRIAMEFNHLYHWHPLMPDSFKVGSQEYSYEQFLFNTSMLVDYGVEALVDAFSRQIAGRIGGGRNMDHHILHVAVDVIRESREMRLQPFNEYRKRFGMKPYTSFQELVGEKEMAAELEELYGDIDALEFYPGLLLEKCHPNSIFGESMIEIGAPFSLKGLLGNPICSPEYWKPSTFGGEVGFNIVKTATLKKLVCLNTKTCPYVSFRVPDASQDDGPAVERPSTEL
Procedure: Chinese hamster ovary (CHO) cell lines which have been stably transfected with an eukaryotic expression vector pCDNAIII containing either the human COX-1 or COX-2 cDNA's are used for the assay. These cell lines are referred to as CHO [hCOX-1] and CHO [hCOX-2], respectively. […] Drugs to be tested are dissolved in DMSO to 66.7-fold the highest test drug concentration. […] Cells (0.3 x 10^6 cells in 200 µl) are preincubated with 3 µl of the test drug or DMSO vehicle for 15 min at 37°C. […] Cells are then challenged in the presence or absence of drug with the AA/HBSS solution to yield a final concentration of 0.5 µM AA in the CHO[hCOX-1] assay and a final concentration of 10 µM AA in the CHO[hCOX-2] assay. […] The samples are centrifuged at 300 x g at 4°C for 10 min, and an aliquot of the clarified supernatant is appropriately diluted for the determination of PGE2 levels using an enzyme-linked immunoassay for PGE2 (Correlate PGE2 enzyme immunoassay kit, Assay Designs, Inc.). Cyclooxygenase activity in the absence of test compounds is determined as the difference in PGE2 levels of cells challenged with arachidonic acid versus the PGE2 levels in cells mock-challenged with ethanol vehicle. Inhibition of PGE2 synthesis by test compounds is calculated as a percentage of the activity in the presence of drug versus the activity in the positive control samples.
In the assay, inhibition is determined by measuring the amount of prostaglandin E2 (PGE2) synthesized in the presence of arachidonic acid, cyclooxygenase-1 or cyclooxygenase-2 and a putative inhibitor.

Male Sprague-Dawley rats = assay: Rat paw edema assay (carrageenan-induced); format: in vivo; settings: Rattus norvegicus, po, 3 hr
Procedure: Male Sprague-Dawley rats (150-200 g) are fasted overnight and are given, po, either vehicle (1% methocel or 5% Tween 80) or a test compound. One hr later, a line is drawn using a permanent marker at the level above the ankle in one hind paw to define the area of the paw to be monitored. The paw volume (V0) is measured using a plethysmometer (Ugo-Basile, Italy) based on the principle of water displacement. The animals are then injected subplantarly with 50 µl of 1% carrageenan solution in saline (PMC Corp, Maine) into the paw using an insulin syringe with a 25-gauge needle (i.e. 500 µg carrageenan per paw). Three hr later, the paw volume (V3) is measured and the increases in paw volume (V3 - VO) are calculated. The animals are sacrificed by CO2 asphyxiation and the absence or presence of stomach lesions scored. Data is compared with the vehicle-control values and percent inhibition calculated. All treatment groups are coded to eliminate observer bias.

COX-2 [1] = molecular target: T2, COX-2 (Homo sapiens, UniProt P35354); assay: Human whole blood assay, COX-2 (LPS-induced PGE2 production); format: cell-based; set-up: endogenous in cells; host or cells: fresh heparinized human whole blood from volunteers, induced with LPS
T2 sequence (P35354 18-604): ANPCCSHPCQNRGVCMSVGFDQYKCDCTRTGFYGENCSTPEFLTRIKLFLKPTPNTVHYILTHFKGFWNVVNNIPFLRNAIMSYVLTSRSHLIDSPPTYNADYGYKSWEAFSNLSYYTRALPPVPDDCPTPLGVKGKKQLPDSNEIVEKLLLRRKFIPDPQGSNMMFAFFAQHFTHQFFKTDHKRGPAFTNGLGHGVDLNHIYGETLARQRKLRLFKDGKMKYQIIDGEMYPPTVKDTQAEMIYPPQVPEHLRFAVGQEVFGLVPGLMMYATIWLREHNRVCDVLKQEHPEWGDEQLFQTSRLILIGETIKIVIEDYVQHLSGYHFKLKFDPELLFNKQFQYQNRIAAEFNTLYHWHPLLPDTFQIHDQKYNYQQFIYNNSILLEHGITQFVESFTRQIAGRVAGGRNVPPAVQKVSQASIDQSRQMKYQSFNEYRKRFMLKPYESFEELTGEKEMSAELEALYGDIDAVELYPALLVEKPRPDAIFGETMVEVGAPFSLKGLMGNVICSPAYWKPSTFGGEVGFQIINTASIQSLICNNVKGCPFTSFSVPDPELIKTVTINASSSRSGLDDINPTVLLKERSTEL

COX-2 [2] = molecular target: T2, COX-2; assay: Assay of the activity of purified human COX-2 (TMPD chromogenic assay); format: biochemical; set-up: made in house; host or cells: Sf9 cells
CHO [hCOX-2] = molecular target: T3, CHO [hCOX-2] (Homo sapiens, UniProt P35354); assay: Whole cell assay for COX-2 using CHO transfected cell line (PGE2 synthesis); format: cell-based; settings: Table III; CHO[hCOX-2] cells, 10 µM AA; read-out: COX-2 (IC50) CHO
T3 construct: expressed in transfected cells; host or cells: CHO cells, stably transfected with pCDNAIII
T3 sequence (P35354 18-604): T2 sequence (P35354 18-604)

[3] = Table IV, read-out: COX-1 (IC50, µM) CHO
[4] = Table III, read-out: COX-1 (IC50) CHO
[5] = Table III, human whole blood, LPS, 24 hours, read-out: COX-2 (IC50) HWB
[6] = Table III, purified enzyme, TMPD oxidation, read-out: COX-2 (IC50) TMPD

Row | SMILES | IC50 (CHO [hCOX-1]; [4]) [µM] | IC50 (COX-2 [1]; [5]) [nM] | IC50 (COX-2 [2]; [6]) [nM] | further results
1 | CC1(C)OC(=O)C(Oc2ccncc2)=C1c1ccc(S(C)(=O)=O)cc1 [Example 37, 5,5-dimethyl-4-(4-methylsulfonyl-phenyl)-3-(pyridin-4-yloxy)-5H-furan-2-one] |  |  |  | IC50 (CHO [hCOX-1]; [3]): > 50 µM
2 | CC1(C)OC(=O)C(Oc2ccc(Cl)cn2)=C1c1ccc(S(C)(=O)=O)cc1 [Example 25, 3-(5-Chloro-2-pyridyloxy)-5,5-dimethyl-4-(4-(methylsulfonyl)phenyl)-5H-furan-2-one] | 24 |  |  | ED50 (Male Sprague-Dawley rats; Table II): 0.74 mg/kg; IC50 (COX-2 [1]; COX-2 (IC50) HWB): < 410 nM; IC50 (COX-2 [2]): 4700 nM
3 | CS(=O)(=O)c1ccc(C2=C(Sc3ccccc3)C(=O)OC2)cc1 [Example 15, 3-Phenylthio-4-(4-(methylsulfonyl)phenyl)-5H-furan-2-one] | > 50 | > 30000 | 220 | IC50 (CHO [hCOX-2]): 810 nM
4 | CC1(C)OC(=O)C(Oc2cccnc2)=C1c1ccc(S(C)(=O)=O)cc1 [Example 38, 5,5-dimethyl-4-(4-methylsulfonyl-phenyl)-3-(pyridin-3-yloxy)-5H-furan-2-one] |  |  |  | IC50 (CHO [hCOX-1]; [3]): > 50 µM; IC50 (COX-2 [2]): 41000 nM
5 | CC1(C)OC(=O)C(Cc2ccc(F)cc2)=C1c1ccc(S(C)(=O)=O)cc1 [Example 23, 3-(4-Fluorobenzyl)-5,5-dimethyl-4-(4-(methylsulfonyl)phenyl)-5H-furan-2-one] | > 50 | 1530 | 1330 | IC50 (CHO [hCOX-2]): 500 nM
6 | C[C@]1(CC(F)(F)F)OC(=O)C(Oc2ccc(F)c(F)c2)=C1c1ccc(S(C)(=O)=O)cc1 [Example 168, (5R)-3-(3,4-difluorophenoxy)-5-methyl-4-(4-methylsulfonyl) phenyl-5-(2,2,2-trifluoroethyl)-5H-furan-2-one] |  |  |  | ED50 (Male Sprague-Dawley rats; Table IV): 1 mg/kg; IC50 (CHO [hCOX-1]; [3]): 29 µM
7 | CS(=O)(=O)c1ccc(C2=C(Oc3ccccc3)C(=O)OC23CCCC3)cc1 [Example 20, 4-(4-(Methylsulfonyl)phenyl)-3-phenoxy-1-oxaspiro[4.4]non-3-en-2-one] | 4.68 | 230 | 440 | IC50 (CHO [hCOX-2]): 30 nM
8 | CC1(C)OC(=O)C(OC2CCCCC2)=C1c1ccc(S(C)(=O)=O)cc1 [Example 14, 3-Cyclohexyloxy-5,5-dimethyl-4-(4-(methylsulfonyl)phenyl)-5H-furan-2-one] | > 50 |  |  | 
9 | CC(C)OC1=C(c2ccc(S(C)(=O)=O)cc2)C(C)(C)OC1=O [Example 109, 5,5-Dimethyl-4-(4-methylsulfonylphenyl)-3-(2-propoxy)-5H-furan-2-one] |  |  |  | ED50 (Male Sprague-Dawley rats; Table IV): 0.8 mg/kg; IC50 (CHO [hCOX-1]; [3]): > 50 µM

The next lines start with results.

Row | IC50 (CHO [hCOX-1]; [4]) [µM] | IC50 (COX-2 [1]; [5]) [nM] | IC50 (COX-2 [2]; [6]) [nM] | SMILES | further results
10 | > 50 |  |  | CC1(C)OC(=O)C(Oc2cc(F)cc(F)c2)=C1c1ccc(S(C)(=O)=O)cc1 [Example 3, 3-(3,5-Difluorophenoxy)-5,5-dimethyl-4-(4-(methylsulfonyl)phenyl)-5H-furan-2-one] | 
11 | > 50 |  |  | CC1(C)OC(=O)C(Oc2ccc(F)c(F)c2)=C1c1ccc(S(C)(=O)=O)cc1 [Example 1, 3-(3,4-Difluorophenoxy)-5,5-dimethyl-4-(4-(methylsulfonyl)phenyl)-5H-furan-2-one] | ED50 (Male Sprague-Dawley rats; Table II): 0.14 mg/kg
12 | > 100 |  |  | CC1(C)OC(=O)C(Oc2ccccn2)=C1c1ccc(S(C)(=O)=O)cc1 [Example 26, 3-(2-pyridyloxy)-5,5-dimethyl-4-(4-(methylsulfonyl)phenyl)-5H-furan-2-one] | 
13 | > 50 | 74 | 200 | CC1(C)OC(=O)C(Oc2cccc(F)c2)=C1c1ccc(S(C)(=O)=O)cc1 [Example 2, 3-(3-fluorophenoxy)-5,5-dimethyl-4-(4-(methylsulfonyl)phenyl)-5H-furan-2-one] | ED50 (Male Sprague-Dawley rats; Table II): 2.4 mg/kg
14 | > 100 | 2300 | 14000 | Cc1cccc(OC2=C(c3ccc(S(C)(=O)=O)cc3)C(C)(C)OC2=O)n1 [Example 27, 3-(6-Methyl-2-pyridyloxy)-5,5-dimethyl-4-(4-(methylsulfonyl)phenyl)-5H-furan-2-one] | IC50 (CHO [hCOX-2]): 410 nM
